Results taken from ChEMBL document CHEMBL1177843, “Metal based biologically active compounds: design, synthesis, and antibacterial/antifungal/cytotoxic properties of triazole-derived Schiff bases and their oxovanadium(IV) complexes” (Eur J Med Chem, 2010).
Values after ≈ are worked out from the molar mass of the structure shown.

Key:
Salmonella enterica = assay: Antibacterial activity against Salmonella typhi at 1 mg/ml after 24 hrs by agar-well diffusion method; type: functional, Salmonella enterica subsp. enterica serovar Typhi; conditions: for zone of inhibition at 1000 µg/mL: Salmonella enterica, 24 h, read-out: DIZ
Shigella flexneri = assay: Antibacterial activity against Shigella flexneri at 1 mg/ml after 24 hrs by agar-well diffusion method; type: functional; conditions: for zone of inhibition at 1000 µg/mL: Shigella flexneri, 24 h, read-out: DIZ
Artemia salina = assay: Toxicity in Artemia salina nauplii assessed as mortality after 24 hrs; type: organism-based; conditions: in vivo
Bacillus subtilis = assay: Antibacterial activity against Bacillus subtilis at 1 mg/ml after 24 hrs by agar-well diffusion method; type: functional; conditions: for zone of inhibition at 1000 µg/mL: Bacillus subtilis, 24 h, read-out: DIZ
Staphylococcus aureus = assay: Antibacterial activity against Staphylococcus aureus at 1 mg/ml after 24 hrs by agar-well diffusion method; type: functional; conditions: for zone of inhibition at 1000 µg/mL: Staphylococcus aureus, 24 h, read-out: DIZ
Escherichia coli = assay: Antibacterial activity against Escherichia coli at 1 mg/ml after 24 hrs by agar-well diffusion method; type: functional; conditions: for zone of inhibition at 1000 µg/mL: Escherichia coli, 24 h, read-out: DIZ
Pseudomonas aeruginosa = assay: Antibacterial activity against Pseudomonas aeruginosa at 1 mg/ml after 24 hrs by agar-well diffusion method; type: functional; conditions: for zone of inhibition at 1000 µg/mL: Pseudomonas aeruginosa, 24 h, read-out: DIZ
Aspergillus flavus = assay: Antifungal activity against Aspergillus flavus after 7 days; type: functional; conditions: 168 h
Microsporum canis = assay: Antifungal activity against Microsporum canis after 7 days; type: functional; conditions: 168 h
Nakaseomyces glabratus = assay: Antifungal activity against Candida glabrata after 7 days; type: functional; conditions: 168 h
Trichophyton longifusum = assay: Antifungal activity against Trichophyton longifusum after 7 days; type: functional; conditions: 168 h
Fusarium solani = assay: Antifungal activity against Fusarium solani after 7 days; type: functional; conditions: 168 h
Candida albicans = assay: Antifungal activity against Candida albicans after 7 days; conditions: 168 h

| SMILES | Activity (Salmonella enterica) [%] | zone of inhibition at 1000 µg/mL (Salmonella enterica) [mm] | Activity (Shigella flexneri) [%] | zone of inhibition at 1000 µg/mL (Shigella flexneri) [mm] | LD50 (Artemia salina) [×10⁻⁴ M/ml] | Activity (Bacillus subtilis) [%] | zone of inhibition at 1000 µg/mL (Bacillus subtilis) [mm] | Activity (Staphylococcus aureus) [%] | zone of inhibition at 1000 µg/mL (Staphylococcus aureus) [mm] | Activity (Escherichia coli) [%] | zone of inhibition at 1000 µg/mL (Escherichia coli) [mm] | Activity (Pseudomonas aeruginosa) [%] | zone of inhibition at 1000 µg/mL (Pseudomonas aeruginosa) [mm] | MIC (Aspergillus flavus) [µg/mL] | MIC (Microsporum canis) [µg/mL] | MIC (Nakaseomyces glabratus) [µg/mL] | MIC (Trichophyton longifusum) [µg/mL] | MIC (Fusarium solani) [µg/mL] | MIC (Candida albicans) [µg/mL] |
| --- | --- | --- | --- | --- | --- | --- | --- | --- | --- | --- | --- | --- | --- | --- | --- | --- | --- | --- | --- |
| C/C(=N\c1n[nH]c(/N=C(\C)c2ccccn2)n1)c1ccccn1 | 58 | 16 | 39 | 12 | > 3.341 | 39 | 13 | 39 | 11 | 58 | 17 | 58 | 18 |  |  |  |  |  |  |
| Oc1ccc2ccccc2c1/C=N/c1n[nH]c(/N=C/c2c(O)ccc3ccccc23)n1 | 35 | 14 | 35 | 13 | > 7.614 | 57 | 16 | 35 | 12 | 35 | 11 | 35 | 11 |  |  |  |  |  |  |
| C(=N\c1n[nH]c(/N=C/c2ccc[nH]2)n1)/c1ccc[nH]1 | 55 | 16 | 39 | 12 | > 6.897 | 39 | 13 | 39 | 11 | 55 | 17 | 39 | 14 |  |  |  |  |  |  |
| C(=N\c1n[nH]c(/N=C/c2ccccn2)n1)/c1ccccn1 | 43 | 11 | 58 | 18 | > 4.128 | 43 | 12 | 58 | 16 | 43 | 15 | 43 | 13 |  |  |  |  |  |  |
| C[C@@H]1[C@H](O)[C@@H](C)/C=C/C=C/C=C/C=C/C=C/C=C/C=C/[C@H](O[C@@H]2O[C@H](C)[C@@H](O)[C@H](N)[C@@H]2O)C[C@@H]2O[C@](O)(C[C@@H](O)C[C@@H](O)[C@H](O)CC[C@@H](O)C[C@@H](O)CC(=O)O[C@H]1C)C[C@H](O)[C@H]2C(=O)O [AMPHOTERICIN B] |  |  |  |  |  |  |  |  |  |  |  |  |  | 20 (≈ 21.6 µM) |  |  |  |  |  |
| C[C@@H](O)[C@H]1C(=O)N2C(C(=O)O)=C(SCCNC=N)C[C@H]12 [IMIPENEM ANHYDROUS] |  | 29 |  | 31 |  |  | 28 |  | 26 |  | 29 |  | 30 |  |  |  |  |  |  |
| Clc1ccc(COC(Cn2ccnc2)c2ccc(Cl)cc2Cl)c(Cl)c1 (centres undefined) [MICONAZOLE] |  |  |  |  |  |  |  |  |  |  |  |  |  |  | 98.4 (≈ 236 µM) | 111 (≈ 266 µM) | 70 (≈ 168 µM) | 73.2 (≈ 176 µM) | 111 (≈ 266 µM) |
